The source of these data is US10081609B2, “Compounds for inducing proliferation and differentiation of cells, and methods of use thereof” (The Broad Institute, Inc., priority 2013, dated 2018).

For series [1], the system named is iPS-derived endothelial cells. As to the kind of experiment: Differentiation of iPS-derived endothelial cells (nitric oxide). Format: cell-based. The protocol: Cells were assayed for nitric oxide (NO), a mature marker for endothelial cells. CB=FPH2, M=FH1, E=PH1, while Null and DMSO are control runs with no additive and vehicle only, respectively.
For series [2], the system named is primary human hepatocytes. Kind of series: Expansion of primary human hepatocytes from six additional cell sources (Ki67/albumin staining, FACS). Format: cell-based. The protocol: On day seven, the number of hepatocytes was quantified by FACS analysis (FIG. 6B). Day one untreated controls was added to the bar graph for reference.
In series [3] the test system is iHeps. As to the kind of experiment: CYP450 activities of treated iHeps through isoenzyme-specific probes. Format: cell-based, human. On the procedure: Culture media were collected and frozen at −20° C. until analysis. Albumin content was measured through sandwich ELISA assays (MP Biomedicals, Fitzgerald, Bethyl Laboratories) using horseradish peroxidase detection and 3,3′,5,5′-tetramethylbenzidine (TMB, Fitzgerald Industries) as a substrate. Urea concentration was determined colorimetrically using diacetylmonoxime with acid and heat (Stanbio Labs). To quantify CYP450 activity, at 48 hours after small molecule exposure, cultures were incubated with substrates (coumarin from Sigma for CYP2A6, luciferin-IPA from Promega for CYP3A4) for 4 hours at 37° C. Incubation medium was collected and metabolite concentration quantified via luminescence, or fluorescence after hydrolization of potential metabolite conjugates by β-glucuronidase/arylsulfatase (Roche, Ind.).
The ability of compounds of the invention to affect the differentiation and maturation of iHeps was tested. Undifferentiated iPS cells were cultured on Matrigel, supported by primary mouse embryonic fibroblasts. […]
To confirm the staining results, secreted levels of albumin and AFP via ELISA, and CYP450 activities through isoenzyme-specific probes that are either fluorescent or luminescent were measured. […]

Regarding `Cc1ccc(Cl)cc1N(CC(=O)Nc1c(F)cccc1F)S(C)(=O)=O` [FPH2, 2-(N-(5-chloro-2-methylphenyl)methylsulfonamido)-N-(2,6-difluorophenyl)acetamide], in series [1], the “differentiation of iPS-derived endothelial cells (nitric oxide)” value is “induce differentiation”. In addition, the “number of hepatocytes by FACS” value in series [2] (day seven, all donors) was “increase”. Also, in series [2] (six additional cell sources, six days in culture), the “Ki67 staining co-localized with albumin labeled hepatocytes” value is “increased”. Besides, in series [3], the CYP3A4 activity increase is 45 times.
